# Data from patent US10940188B2, “Compounds and methods for treatment and prevention of Flavivirus infection” (priority 2016, dated 2021).
# Assays:
# ZIKV PRVABC59 in hNPCs = test: ZIKV infection of hNPCs (NS1 Western blot); type: cell-based, Zika virus
# Description: FIGS. 4A-1, 4A-2, 4B-1, 4B-2, 4B-3, 4C-1, 4C-2, 4D-1, and 4D-2. […] Cells were fixed 24 hours post infection and stained for ZIKVE (green) and DAPI (blue). Scale bar: 50 μm. Also shown is the quantification of ZIKV-infected astrocytes with multiple compound concentrations (FIG. 4A-2). Values represent mean±s.d. (n=6; ***P<0.001; One-way ANOVA). Shown in FIG. 4B-3 is virus production from compound-treated iPSC-derived human astrocytes (as in FIG. 2F) (n=3 cultures). Data represent mean±s.d. […] Shown are sample images and quantification (FIGS. 4B-1 and 4B-2). Values represent mean±s.d. (n=2; ***P<0.01; One-way ANOVA). […] Note that Emricasan and PHA-690509 inhibit the increased caspase-3 activity in a concentration-dependent manner in human astrocytes infected with FSS13025-ZIKV or MR766 ZIKV, and improve cell viability as measured by ATP production (FIGS. 4C-1, 4C-2, 4D-1, and 4D-2). […]
# SNB-19 cells, BJ astrocytes, or hNPCs were seeded in 12-well plates at approximately 3e5 cells/well. […] Cells and supernatant were harvested 24-48 hours post infection and analyzed by western blot or IFA. Western blot bands were quantified and IFA images counted using ImageJ (NIH, Bethesda, Md.).
# SNB-19, BJ astrocyte, or NPCs were seeded in 12-well plates at approximately 3e5 cells/well. […] Cells and supernatant were harvested 24-48 hours post infection and analyzed by western blot or IFA. […]
# ZIKV in human astrocytes = test: ZIKV infection of human astrocytes (ZIKVE immunostaining, NS1 Western blot/ELISA); type: cell-based, Zika virus; conditions: PRVABC59
# Description: FIGS. 4A-1, 4A-2, 4B-1, 4B-2, 4B-3, 4C-1, 4C-2, 4D-1, and 4D-2. […] Cells were fixed 24 hours post infection and stained for ZIKVE (green) and DAPI (blue). Scale bar: 50 μm. Also shown is the quantification of ZIKV-infected astrocytes with multiple compound concentrations (FIG. 4A-2). Values represent mean±s.d. (n=6; ***P<0.001; One-way ANOVA). Shown in FIG. 4B-3 is virus production from compound-treated iPSC-derived human astrocytes (as in FIG. 2F) (n=3 cultures). Data represent mean±s.d. […] Shown are sample images and quantification (FIGS. 4B-1 and 4B-2). Values represent mean±s.d. (n=2; ***P<0.01; One-way ANOVA). Synergistic effect of Emricasan/PHA-690509 combination on improving cell viability in ZIKV infected astrocytes. Note that Emricasan and PHA-690509 inhibit the increased caspase-3 activity in a concentration-dependent manner in human astrocytes infected with FSS13025-ZIKV or MR766 ZIKV, and improve cell viability as measured by ATP production (FIGS. 4C-1, 4C-2, 4D-1, and 4D-2). Values represent mean±s.d. […]
# FIGS. 8A-8E. […] Cell lysates were harvested 24 hours post infection and analyzed for ZIKV-NS1 and GAPDH protein levels by western blot. Shown are representative Western blot images (FIG. 8A) and quantification (FIG. 8B). […] Shown in FIG. 8D are representative images of immunostaining for ZIKVE (green) and DAPI (gray, left; Scale bar: 20 μm) and quantification (FIG. 8E). […]
Structure (SMILES),inhibition of ZIKV infection in hNPCs (ZIKV PRVABC59 in hNPCs),inhibition of ZIKV infection in astrocytes (ZIKV in human astrocytes)
O=C(Nc1ccc([N+](=O)[O-])cc1Cl)c1cc(Cl)ccc1O [Niclosamide],inhibited ZIKV^PR infection,inhibited ZIKV^PR infection
CC(=O)Nc1ccc([C@H](C)C(=O)Nc2ncc(C(C)C)s2)cc1 [PHA-690509],inhibited ZIKV^PR infection,inhibited ZIKV^PR infection
